Data from patent US6548540B2, “Method of treating cancer using dithiocarbamate derivatives” (Charlotte-Mecklenburg Hospital Authority, priority 1998, dated 2003).
Read-outs that look alike come from different tables or passages of the source.

Key:
[1] = tested on: cyclin B1; assay: Immunoblot for cyclin B1; format: cell-based, human; details: disulfiram plus copper; data not shown
Experimental: (§1) Cells were lysed and proteins were isolated and quantitated by immunoassay as previously detailed using 2 μg/ml of primary rabbit polyclonal antibodies against human bcl-2, p53, p21^WAF1/CiP1, cyclin A and cyclin B1, and peroxidase-labeled donkey polyclonal anti-rabbit IgG. Cells were placed on ice, washed twice with cold DPBS, scraped into 0.5 ml boiling buffer (10% [vol/vol] glycerol and 2% [wt/vol] sodium dodecyl sulfate [SDS] in 83 mM Tris, pH 6.8) and sheared by four passages through a pipette. Aliquots were removed for protein determination, using the BCA protein assay (Pierce). After 10% β-mercaptoethanol and 0.05% bromophenol blue were added, lysates were boiled for 5 min and stored at −80° C. until immunoblotting was performed. Proteins in defrosted samples were separated by SDS-polyacrylamide gel electrophoresis on 12% polyacrylamide gels (15 μg protein/lane) and electrotransferred to 0.45 μm Hybond ECL nitrocellulose membranes (Amersham Life Sciences) using the wet transblot method in transfer buffer (0.025 M Tris, 0.192 M glycine, 2.6 mM SDS, and 20%[vol/vol] methanol; pH 8.8) at 100 volts for 1 hour. […] Immunoblots were rinsed again as above and detected via an enhanced chemiluminescence method (ECL Western blotting detection system, Amersham Life Science, Buckinghamshire, England). […]

[2] = tested on: p21WAF1/CIP1; assay: Immunoblot for p21WAF1/CIP1; format: cell-based, human; details: cell lines studied; data not shown
Experimental: as §1

[3] = tested on: Breast carcinoma MDA-MB-453; assay: MTT proliferation assay, breast carcinoma; format: cell-based; details: Homo sapiens, read-out: Mean Percent Inhibition of Growth; for inhibition at 0.625 µM: disulfiram 0.625 μM; for inhibition at 1.25 µM: disulfiram 1.25 μM; for inhibition at 2.5 µM: disulfiram 2.5 μM; for inhibition at 5 µM: disulfiram 5.0 μM
Experimental: Human malignant cell lines were obtained from American Type Tissue Culture Collection (Rockville, Md.). Melanoma cells lines CRL 1585 and 1619 were cultured in RPMI 1640 (GIBCO-BRL, Life Technologies, Grand Island, N.Y.) with 10% FBS and passed with nonenzymatic Cell Dissociation Solution® (Sigma). The prostate adenocarcinoma cell line CRL 1435 (PC-3) was also cultured in RPMI 1640 with 10% FBS but passed with 0.05% trypsin and 0.53 mM EDTA. The squamous lung carcinoma NCI-H520 and the adenosquamous lung carcinoma NCI-H596 cell lines were grown in RPMI 1640 supplemented with 10% FBS, 10 mM HEPES and 1.0 mM sodium pyruvate and passed with trypsin/EDTA. The small cell lung carcinoma NCI-H82 was cultured as a suspension in RPMI 1640 with 10% FBS. All of the above were grown in a 37° C. humidified environment containing 5% CO2/air. The breast carcinoma cell line MDA-MB-453 was grown in a 37° C. humidified environment with free gas exchange with atmospheric air using Leibovitz's L-15 medium with 2 mM L-glutamine and 10% FBS and was passed with trypsin/EDTA.
The effect of disulfiram (0.15 to 5.0 μM), diethyldithiocarbamate (DDC, 1.0 μM) or PDTC (0.625 to 5.0 μM) on proliferation of malignant cell lines was studied in cultures stimulated with 10% FBS. Cell numbers were quantitated 24-72 hours later. In some experiments disulfiram or PDTC were added immediately after cells were plated. In other experiments, cells were plated and allowed to grow for 24-72 hours before fresh media with disulfiram or PDTC was added, and cell numbers were assayed 24-72 hours later. Synergy was studied between disulfiram and N,N′-bis(2-chloroethyl-N-nitrosourea (carmustine or BCNU, 1.0 to 1,000 μM) or cisplatin (0.1 to 100 μg/ml) added to medium. The effect of metals on disulfiram was studied with 0.2 to 10 μM copper (provided as CuSO4), zinc (as ZnCl2), silver (as silver lactate) or gold (as HAuCl4.3H2O) ions added to growth medium. No pH changes occurred with addition of metal salts to culture medium. To provide a biologically relevant source of copper, in some experiments medium was supplemented with human ceruloplasmin at doses replicating low and high normal adult serum concentrations (250 and 500 μg/ml).
Proliferation of cultured cells was quantitated using a previously reported calorimetric method based upon metabolic reduction of the soluble yellow tetrazolium dye 3-[4,5-dimethylthiazol]-2yl-2,5-diphenyl tetrazolium bromide (MTT) to its insoluble purple formazan by the action of mitochondrial succinyl dehydrogenase (See, e.g., S. J. Hirst, et al., “Quantifying proliferation of cultured human and rabbit airway smooth muscle in response to serum and platelet derived growth factor,” Am. J. Respir. Cell Mol. Biol. 7:574-581 (1992); R. Dashtaki, et al. R., supra; S. S. Brar, et al., “Requirement for reactive oxygen species in serum-induced and platelet-derived growth factor-induced growth of airway smooth muscle,” J. Biol. Chem. 274:20017-20026 (1999)). This assay empirically distinguishes between dead and living cells. For proliferation studies, cells were seeded into 24-well uncoated plastic plates (Costar) at 50,000 cells per well and cultured with respective media and mitogens. After 24-96 hours, medium was removed, cells were washed twice with 1 ml of sterile Dulbecco's modified phosphate buffered saline without Ca^2+ or Mg^2+ (DPBS), the medium was replaced with 1 ml/well fresh medium containing 100 μg/ml MTT, and plates were incubated an additional hour. MTT-containing medium was removed, 0.5 ml dimethylsulfoxide (DMSO) was added to each well, and the absorbance of the solubilized purple formazan dye was measured at 540 nm. A total of 4-6 wells were studied at each treatment condition. Preliminary studies were performed with 50-200 μg/ml MTT incubated for 15 minutes to 3 hours to determine the optimum concentration and incubation time at which the rate of conversion was linear and proportional to the number of cells present. […]

[4] = section 'Treatment after 24 hours' (breast grown 48 hours), additional 48 hours
[5] = treatment initially, after 48 hours, 10% FBS

With CCN(CC)C(=S)SSC(=S)N(CC)CC [Disulfiram, tetraethylthiuram disulfide] the “levels of B1” value [1] was “remained unchanged”, the “expression of p21WAF1/CIP1” value [2] was “no consistent effect” and the inhibition at 0.625 µM [3, 4] was 26 ± 5%. It also gave an inhibition at 0.625 µM [3, 5] of 69 ± 4%, an inhibition at 1.25 µM [3, 4] of 26 ± 2% and an inhibition at 1.25 µM [3, 5] of 94 ± 2%. For the same compound, the inhibition at 2.5 µM [3, 4] was 39 ± 2%, the inhibition at 2.5 µM [3, 5] was 100% and the inhibition at 5 µM [3, 4] was 46 ± 4%. The inhibition at 5 µM [3, 5] was 100%.
